Test results published in patent US12653817B2, “Pharmaceutical composition comprising protein kinase inhibitor and chemotherapeutic drug and use thereof” (SHENZHEN CHIPSCREEN BIOSCIENCES CO., LTD., priority 2020, dated 2026).
“Also recorded” adds a separate entry of the source.

Experiments:
[1] = Phase Ib single-arm clinical trial of chiauranib capsules, safety evaluation; assay type: in vivo
Method: (§1) Medication regimen: 50 mg of chiauranib was taken orally every morning on an empty stomach, once a day, every 28 days as a treatment cycle, and there was no drug withdrawal interval between the treatment cycles. The treatment was continued until any of the following conditions occurred (whichever occurred first): progressive disease, intolerable toxicity reaction, death, withdrawal of informed consent, or loss to follow-up.
The safety indicators comprised adverse events, vital signs, ECG and abnormal laboratory results, which were evaluated according to CTCAE V4.03. Twenty-five patients with relapsed and refractory ovarian cancer were enrolled in the study and included in the safety data set (SS) for analysis.

[2] = system: relapsed and refractory ovarian cancer; test: Phase Ib single-arm clinical trial of chiauranib capsules, efficacy; assay type: in vivo, human
Excerpt: A single-arm, multi-center, non-randomized, open-label phase Ib trial.
Main inclusion criteria: Patients with histologically diagnosed epithelial ovarian cancer, fallopian tube cancer or primary peritoneal carcinoma; patients who had received platinum-based chemotherapy regimens, and platinum-resistant patients who achieved progressive or relapsed disease after had received ≥2 different chemotherapy regimens; platinum-sensitive patients who achieved progressive or relapsed disease after had received ≥2 different chemotherapy regimens, or who refused to receive further chemotherapy.
as §1
Efficacy indicators: The efficacy indicators were evaluated by investigators and imaging experts according to RECIST1.1 criteria.
Main: Objective response rate (ORR).
Secondary: Progression-free survival (PFS), time to progression (TTP), 16-week disease control rate (16W-DCR), duration of response (DOR) of disease, overall survival (OS).
Twenty-five patients with relapsed and refractory ovarian cancer were enrolled in the study, and the number of previous treatment regimens they had received was ≥3. 3 cases (12.0%) were sensitive to the last platinum-containing chemotherapy, and 22 cases (88.0%) were refractory or resistant to the last platinum-containing chemotherapy. As of the cut-off date for trial data (Mar. 20, 2019), 16 patients (64.0%) discontinued the treatment due to progressive disease, 3 patients (12.0%) discontinued the treatment due to adverse events, and other reasons for the discontinuation of the treatment comprised voluntary withdrawal of subjects, end of trial and loss to follow-up.
The full analysis set (FAS) and safety data set (SS) were used for analysis, and 25 subjects were included in each data set.

[3] = system: platinum-refractory/resistant relapsed advanced ovarian cancer; details: historical data; cited from earlier work
[4] = increase in serum creatine phosphokinase MB, 25 subjects
[5] = 25 patients, cut-off Mar. 20, 2019
[6] = chiauranib 50 mg orally once a day, N = 25, cut-off Mar. 20, 2019

COc1ccc2c(Oc3ccc4c(C(=O)Nc5ccccc5N)cccc4c3)ccnc2c1 [chiauranib, N-(2-aminophenyl)-6-(7-methoxyquinoline-4-oxy)-1-naphthamide]
Abdominal pain, % ([1]; 25 subjects): 52.0% | Abdominal pain, cases ([1]; 25 subjects): 13 cases | Adverse event leading to the discontinuation of the treatment, % ([1]; 25 subjects): 12.0% | Adverse event leading to the discontinuation of the treatment, patients ([1]; 25 subjects): 3 patients | Adverse event leading to the suspension of chiauranib, % ([1]; 25 subjects): 40.7% | Adverse event leading to the suspension of chiauranib, patients ([1]; 25 subjects): 11 patients | At least one common adverse event, % ([1]; 25 subjects): 100% | At least one common adverse event, subjects ([1]; 25 subjects): 25 subjects | Diarrhea, % ([1]; 25 subjects): 72.0% | Diarrhea, cases ([1]; 25 subjects): 18 cases | Discontinuation due to bile duct obstruction ([1]; 25 subjects): dysfunction syndrome, 1 case of bile duct | Discontinuation due to electrolyte disturbance ([1]; 25 subjects): obstruction, and 1 case of electrolyte | Fatigue, % ([1]; 25 subjects): 64.0% | Fatigue, cases ([1]; 25 subjects): 16 cases | Hypertension, % ([1]; 25 subjects): 44.0% | Hypertension, cases ([1]; 25 subjects): 11 cases | Loss of appetite, % ([1]; 25 subjects): 64.0% | Loss of appetite, cases ([1]; 25 subjects): 16 cases | Proteinuria, % ([1]; 25 subjects): 60.0% | Proteinuria, cases ([1]; 25 subjects): 15 cases | Related serious adverse event: hypokalemia ([1]; 25 subjects): electrolyte disturbance, 1 case of hypokalemia, | Serious adverse events judged to be related to chiauranib (definitely related, possibly related, undetermined), cases ([1]; 25 subjects): 5 cases | Suspension due to decreased appetite ([1]; 25 subjects): ventricular dysfunction, 1 case of infection, 1 | Suspension due to increased alanine aminotransferase ([1]; 25 subjects): 1 case | Suspension due to infection ([1]; 25 subjects): ventricular dysfunction, 1 case of infection, 1 | Suspension due to proteinuria ([1]; 25 subjects): 2 cases | Weight loss, % ([1]; 25 subjects): 56.0% | Weight loss, cases ([1]; 25 subjects): 14 cases | Serious adverse events, % of patients ([1]; 25 subjects, CTCAE V4.03): 32.0% | Serious adverse events, cases ([1]; 25 subjects, CTCAE V4.03): 9 cases | Serious adverse events, patients ([1]; 25 subjects, CTCAE V4.03): 8 patients | Adverse event leading to the reduction of the dosage of chiauranib, % [1, 4]: 4.0% | Adverse event leading to the reduction of the dosage of chiauranib, patients [1, 4]: One | Adverse event leading to death, % ([1]; multiple organ dysfunction syndrome, 25 subjects): 4.0% | Adverse event leading to death, patients ([1]; multiple organ dysfunction syndrome, relation to chiauranib undetermined, 25 subjects): One | Tolerability of single-agent therapy ([1]; toxicity characteristics similar to VEGFR target drugs): can be tolerated by most subjects | Discontinued the treatment due to progressive disease, % [2, 5]: 64.0% | Discontinued the treatment due to progressive disease, patients [2, 5]: 16 patients | Duration of response, Event ([2]; N = 25, cut-off Mar. 20, 2019): 0 | Overall survival, Event ([2]; N = 25, cut-off Mar. 20, 2019): 11 | Progression-free survival, Event (progressive disease or death) ([2]; N = 25, cut-off Mar. 20, 2019): 12 | Time to progression, Event ([2]; N = 25, cut-off Mar. 20, 2019): 11 | 16-week disease control rate ([2]; chiauranib 50 mg orally once a day, N = 25): 32.0% | Objective response rate ([2]; chiauranib 50 mg orally once a day, N = 25, RECIST1.1): 4.0% | Progression-free survival, median [2, 6]: 3.7 month | Time to progression, median [2, 6]: 3.7 month | Efficacy conclusion, single-agent ([2]; subjects with platinum-refractory/resistant relapsed ovarian cancer who had received multiple chemotherapies): shown preliminary efficacy in tumor response; also recorded: showed primary efficacy of tumor response

COc1cc([C@@H]2c3cc4c(cc3[C@@H](O[C@@H]3O[C@@H]5CO[C@@H](C)O[C@H]5[C@H](O)[C@H]3O)[C@H]3COC(=O)[C@H]23)OCO4)cc(OC)c1O [etoposide]
Response rate of single-agent [3]: about 27%

CC(=O)O[C@H]1C(=O)[C@@]2(C)[C@H]([C@H](OC(=O)c3ccccc3)[C@]3(O)C[C@H](OC(=O)[C@H](O)[C@@H](NC(=O)c4ccccc4)c4ccccc4)C(C)=C1C3(C)C)[C@]1(OC(C)=O)CO[C@@H]1C[C@@H]2O [paclitaxel]
Response rate of single-agent [3]: about 21%
